Assay results reported in patent US11274332B2, “Methods of administering 3,4-diaminopyridine” (SERB SA, priority 2011, dated 2022).

Target: T1, cloned human Kv1.4 potassium channel (Homo sapiens, UniProt P22459)
T1 construct: expressed in transfected cells
Assay: PatchXpress inhibition of cloned human Kv1.4 in HEK293 cells (Example 6)
Type: cell-based
Conditions: hKv1.4, up to 3000 μM
Source text: The objective of this study was to examine the in vitro effects and determine the […] of 3,4-DAP phosphate and the metabolite N-(4-aminopyridin-3-yl) acetamide HCl on the following ion channels: cloned human Kv1.1 potassium channel (encoded by the human KCNA1 gene, expressed in HEK293 cells), cloned human Kv1.2 potassium channel (encoded by the human KCNA2 gene, expressed in HEK293 cells), cloned human Kv1.3 potassium channel (encoded by the human KCNA3 gene, expressed in CHO cells), cloned human Kv1.4 potassium channel (encoded by the human KCNA4 gene, expressed in HEK293 cells), cloned human Kv1.5 potassium channel (encoded by the human KCNA5 gene and expressed in CHO cells), responsible for IKur, ultra-rapid delayed rectifier potassium current.
Chemicals used in solution preparation were purchased from Sigma-Aldrich (St. Louis, Mo.), unless otherwise noted, and were of ACS reagent grade purity or higher. Stock solutions of each test article (100 mM, 30 mM and 1.00 mM 3,4-DAP phosphate and 100 mM N-(4-aminopyridin-3-yl)acetamide) were prepared in sterile water and stored refrigerated. […]
In preparation for a recording session, intracellular solution was loaded into the intracellular compartments of the Sealchip16. […] After establishment of a whole-cell configuration, membrane currents were recorded using dual-channel patch clamp amplifiers in the PatchXpress®. […]

T1 sequence (P22459 whole entry): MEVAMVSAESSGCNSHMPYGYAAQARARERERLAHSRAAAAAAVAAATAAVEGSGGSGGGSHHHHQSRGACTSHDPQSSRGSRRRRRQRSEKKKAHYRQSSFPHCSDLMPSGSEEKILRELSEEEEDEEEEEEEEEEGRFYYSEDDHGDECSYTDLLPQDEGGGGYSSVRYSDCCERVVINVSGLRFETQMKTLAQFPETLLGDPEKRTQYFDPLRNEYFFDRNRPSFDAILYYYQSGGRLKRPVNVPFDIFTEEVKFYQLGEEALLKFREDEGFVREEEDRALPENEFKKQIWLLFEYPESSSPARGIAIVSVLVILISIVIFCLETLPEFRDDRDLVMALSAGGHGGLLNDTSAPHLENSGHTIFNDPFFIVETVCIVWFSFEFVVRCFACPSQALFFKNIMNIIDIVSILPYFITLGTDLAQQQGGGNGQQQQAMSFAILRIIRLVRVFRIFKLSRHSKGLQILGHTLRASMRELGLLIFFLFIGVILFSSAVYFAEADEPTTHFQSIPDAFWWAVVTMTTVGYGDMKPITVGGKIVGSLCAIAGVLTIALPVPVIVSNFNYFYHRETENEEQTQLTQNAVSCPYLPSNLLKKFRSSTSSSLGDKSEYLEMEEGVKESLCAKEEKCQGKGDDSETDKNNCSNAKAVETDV

activity on K+ channel: inactive
activity on K+ channel (listed as N-acetyl metabolite): not active
SMILES: CC(=O)Nc1cnccc1N [3-N-acetyl amifampridine, N-(4-aminopyridin-3-yl)acetamide]
